Experimental data as given in US20210355115A1, “ISOXAZOLE CARBOXAMIDE COMPOUNDS AND USES THEREOF” (Novartis AG, priority 2018, published 2021).

Test system: Atoh1
Test: Atoh1 induction assay in mouse cerebellar neural precursor cells (Atoh1-GFP reporter assay)
Assay type: cell-based
Details: maximum fold difference over DMSO control (=1), cerebellar NPCs from Atoh1-GFP mice, 10 doses 50 μM to 200 nM, 72 hours treatment, read-out: Fold Difference (ratio of Atoh1-GFP average intensity_FC to DMSO_Max)
Description: Atoh1 induction assay was conducted with in vitro cultured cerebellar neural precursor cells isolated from neonatal transgenic Atoh1-GFP mice. Atoh1 expression is mainly regulated by the enhancer, and the nuclear GFP was driven by the cloned enhancer sequence at 3′ of Atoh1 which had high conservation among mammalians So Atoh1 induction could be reflected by GFP activation in cerebellar neural precursor cells (Helms et al., Development 2000; 127: 1185-1196; Lumpkin et al., Gene Expression Patterns 2003; 3: 389-395). Postnatal 3 days pups were dissected for cerebellum tissue isolation. The cerebellum tissue was cut into small pieces, and dissociated with 0.05% Trypsin for about 10 minutes at 37° C., and then filtered with a 70 uM cell strainer. The cells were cultured as neuropsheres for the first 2 days in ultra-low attachment dish/well-plate with DMEM/F12+1% N2 &2% B27 with 1% P/S, 20 ng/ml rhFGF2 and 20 ng/ml rhEGF (R&D Systems). Then the spheres were plated to the matrigel (1:30 diluted in DMEM/F12)-coated tissue culture dish for monolayer culture. After 4.5-5.5 days culture in vitro (DIV), cells were dissociated with 0.05% trypsin into single cells, and frozen after cell number calculation.
The cerebellar neural precursor cells (NPCs) were re-thawed from stock and cultured for another 2 days before used for Atoh1 induction assay. On the first day of assay, NPCs were seeded into matrigel-coated 384 well plates (Black view-plate, PE) at 2500 cells/well. After over-night culture, the NPCs were treated with representative compounds of the present disclosure with 1:2 serial dilutions for 10 doses, from 50 μM to 200 nM, with DMSO as negative control. After 72 hours treatment without medium change, the cells were fixed with 4% formalin for staining Assay plates were stained with GFP antibody (Abcam, #13970, 1:1000) to amplify endogenous GFP signal and then read by Cellomics. […] Table 1 Atoh1 activation by treatment of Compounds of the present disclosure (Atoh1-GFP reporter assay in cerebellar NPCs)

SMILES: N#C[C@H]1CCN(CCCCCNC(=O)c2cc(-c3ccc(F)cc3)on2)C[C@H]1O (single isomer, unassigned) [Example 2]
- maximal fold induction: 11.5

SMILES: NC(=O)[C@@H]1CCN(CCCCCNC(=O)c2cc(-c3cccs3)on2)C[C@@H]1O (stereo in doubt) [Example 30, N-(5-(4-carbamoyl-3-hydroxypiperidin-1-yl)pentyl)-5-(thiophen-2-yl)isoxazole-3-carboxamide]
- maximal fold induction: 16.1

SMILES: N#C[C@@H]1CN(CCCCCNC(=O)c2cc(-c3cccs3)on2)C[C@@H]1O [34 cis]
- maximal fold induction: 11.2

SMILES: NC(=O)[C@H](O)CN1CCN(CCCCCNC(=O)c2cc(-c3cccs3)on2)CC1 [37 R]
- maximal fold induction: 29.2

SMILES: NC(=O)[C@@H](O)CN1CCN(CCCCCNC(=O)c2cc(-c3cccs3)on2)CC1 [37 S]
- maximal fold induction: 31.5

SMILES: N#C[C@@H]1CN(CCCCCNC(=O)c2cc(-c3cccs3)on2)CC[C@@H]1C(N)=O [Example 1, N-(5-((3S,4S)-4-carbamoyl-3-cyanopiperidin-1-yl)pentyl)-5-(thiophen-2-yl)isoxazole-3-carboxamide]
- maximal fold induction: 12.7

SMILES: O=C(NCCCCCN1CC(S(=O)(=O)NC2COC2)C1)c1cc(-c2cccs2)on1 [Example 3, N-(5-(3-(N-(oxetan-3-yl)sulfamoyl)azetidin-1-yl)pentyl)-5-(thiophen-2-yl)isoxazole-3-carboxamide]
- maximal fold induction: 11.2

SMILES: N#CCCNS(=O)(=O)C1CN(CCCCCNC(=O)c2cc(-c3cccs3)on2)C1 [Example 4, N-(5-(3-(N-(2-cyanoethyl)sulfamoyl)azetidin-1-yl)pentyl)-5-(thiophen-2-yl)isoxazole-3-carboxamide]
- maximal fold induction: 18.3

SMILES: CNC(=O)COC(=O)NC1CN(CCCCCNC(=O)c2cc(-c3cccs3)on2)C1 [Example 5]
- maximal fold induction: 17.2

SMILES: NS(=O)(=O)C1CCCN(CCCCCNC(=O)c2cc(-c3cccs3)on2)C1 (centres unmarked) [Example 6, N-(5-(3-sulfamoylpiperidin-1-yl)pentyl)-5-(thiophen-2-yl)isoxazole-3-carboxamide]
- maximal fold induction: 20.1

SMILES: NS(=O)(=O)C1CCN(CCCCCNC(=O)c2cc(-c3cccs3)on2)C1 (centres unmarked) [Example 7, N-(5-(3-sulfamoylpyrrolidin-1-yl)pentyl)-5-(thiophen-2-yl)isoxazole-3-carboxamide]
- maximal fold induction: 17.2

SMILES: NC(=O)C1CCN(CCCCCNC(=O)c2cc(-c3ccc(F)cc3)on2)C1 (centres unmarked) [Example 8, N-(5-(3-carbamoylpyrrolidin-1-yl)pentyl)-5-(4-fluorophenyl)isoxazole-3-carboxamide]
- maximal fold induction: 14.6

SMILES: NC(=O)C1(CO)CN(CCCCCNC(=O)c2cc(-c3cccs3)on2)C1 [Example 9, N-(5-(3-carbamoyl-3-(hydroxymethyl)azetidin-1-yl)pentyl)-5-(thiophen-2-yl)isoxazole-3-carboxamide]
- maximal fold induction: 24.4

SMILES: NC(=O)C1(CO)CN(CCCCCNC(=O)c2cc(-c3ccc(F)cc3)on2)C1 [Example 10, N-(5-(3-carbamoyl-3-(hydroxymethyl)azetidin-1-yl)pentyl)-5-(4-fluorophenyl)isoxazole-3-carboxamide]
- maximal fold induction: 19.1

SMILES: CC1(C(N)=O)CN(CCCCCNC(=O)c2cc(-c3cccs3)on2)C1 [Example 11, N-(5-(3-carbamoyl-3-methylazetidin-1-yl)pentyl)-5-(thiophen-2-yl)isoxazole-3-carboxamide]
- maximal fold induction: 33.3

SMILES: CC1(C(N)=O)CN(CCCCCNC(=O)c2cc(-c3ccc(F)cc3)on2)C1 [Example 12, N-(5-(3-carbamoyl-3-methylazetidin-1-yl)pentyl)-5-(4-fluorophenyl)isoxazole-3-carboxamide]
- maximal fold induction: 22.4

SMILES: NC(=O)C1CN(CCCCCNC(=O)c2cc(-c3cccs3)on2)CC1O (centres unmarked) [Example 13, N-(5-(3-carbamoyl-4-hydroxypyrrolidin-1-yl)pentyl)-5-(thiophen-2-yl)isoxazole-3-carboxamide]
- maximal fold induction: 32.5

SMILES: NS(=O)(=O)C1CCN(CCCCCNC(=O)c2cc(-c3cccs3)on2)CC1 [Example 14, N-(5-(4-sulfamoylpiperidin-1-yl)pentyl)-5-(thiophen-2-yl)isoxazole-3-carboxamide]
- maximal fold induction: 23.8

SMILES: NS(=O)(=O)C1CCN(CCCCCNC(=O)c2cc(-c3ccc(F)cc3)on2)CC1 [Example 15, 5-(4-fluorophenyl)-N-(5-(4-sulfamoylpiperidin-1-yl)pentyl)isoxazole-3-carboxamide]
- maximal fold induction: 18.9

SMILES: N#C[C@H]1CCN(CCCCCNC(=O)c2cc(-c3cccs3)on2)C[C@@H]1O [Example 16, N-(5-((3R,4R)-4-cyano-3-hydroxypiperidin-1-yl)pentyl)-5-(thiophen-2-yl)isoxazole-3-carboxamide]
- maximal fold induction: 32.3

SMILES: NC(=O)CCN1CCN(CCCCCNC(=O)c2cc(-c3cccs3)on2)CC1 [Example 17, N-(5-(4-(3-amino-3-oxopropyl)piperazin-1-yl)pentyl)-5-(thiophen-2-yl)isoxazole-3-carboxamide]
- maximal fold induction: 20.4

SMILES: NS(=O)(=O)CCN1CCN(CCCCCNC(=O)c2cc(-c3cccs3)on2)CC1 [Example 19, N-(5-(4-(2-sulfamoylethyl)piperazin-1-yl)pentyl)-5-(thiophen-2-yl)isoxazole-3-carboxamide]
- maximal fold induction: 16.3

SMILES: NC(=O)C1CCN(CCCCCNC(=O)c2cc(-c3cccs3)on2)CC1 [Example 20, N-(5-(4-cathamoylpiperidin-1-yl)pentyl)-5-(thiophen-2-yl)isoxazole-3-carboxamide]
- maximal fold induction: 14.7

SMILES: NC(=O)C1(O)CN(CCCCCNC(=O)c2cc(-c3cccs3)on2)C1 [Example 21, N-(5-(3-carbamoyl-3-hydroxyazetidin-1-yl)pentyl)-5-(thiophen-2-yl)isoxazole-3-carboxamide]
- maximal fold induction: 20.8

SMILES: CNC(=O)C1CN(CCCCCNC(=O)c2cc(-c3ccc(F)s3)on2)C1 [Example 22, 5-(5-fluorothiophen-2-yl)-N-(5-(3-(methylcarbamoyl)azetidin-1-yl)pentyl)isoxazole-3-carboxamide]
- maximal fold induction: 16.8

SMILES: NC(=O)C1CN(CCCCCNC(=O)c2cc(-c3ccc(F)s3)on2)C1 [Example 23, N-(5-(3-carbamoylazetidin-1-yl)pentyl)-5-(5-fluorothiophen-2-yl)isoxazole-3-carboxamide]
- maximal fold induction: 24.3

SMILES: CC(C#N)NC(=O)C1CN(CCCCCNC(=O)c2cc(-c3ccc(F)cc3)on2)C1 (centres unmarked) [Example 24, N-(5-(3-((1-cyanoethyl)carbamoyl)azetidin-1-yl)pentyl)-5-(4-fluorophenyl)isoxazole-3-carboxamide]
- maximal fold induction: 18.3

SMILES: CN1CCN(CCCCCNC(=O)c2cc(-c3cccs3)on2)CC1C(N)=O (centres unmarked) [Example 25, N-(5-(3-carbamoyl-4-methylpiperazin-1-yl)pentyl)-5-(thiophen-2-yl)isoxazole-3-carboxamide]
- maximal fold induction: 13.1

SMILES: NC(=O)C1(O)CCN(CCCCCNC(=O)c2cc(-c3cccs3)on2)CC1 [Example 26, N-(5-(4-carbamoyl-4-hydroxypiperidin-1-yl)pentyl)-5-(thiophen-2-yl)isoxazole-3-carboxamide]
- maximal fold induction: 16.3

SMILES: O=C(NCCCCCN1CC(C(=O)N[C@H]2CCC[C@H]2O)C1)c1cc(-c2ccc(F)cc2)on1 [Example 27, 5-(4-fluorophenyl)-N-(5-(3-(((1S,2R)-2-hydroxycyclopentyl)carbamoyl)azetidin-1-yl)pentyl)isoxazole-3-carboxamide]
- maximal fold induction: 13.5

SMILES: NC(=O)[C@@H]1CCN(CCCCCNC(=O)c2cc(-c3cccs3)on2)C[C@@H]1F [Example 28-cis, N-(5-((3R,4S)-4-carbamoyl-3-fluoropiperidin-1-yl)pentyl)-5-(thiophen-2-yl)isoxazole-3-carboxamide]
- maximal fold induction: 11.9

SMILES: NC(=O)[C@@H]1CCN(CCCCCNC(=O)c2cc(-c3cccs3)on2)C[C@H]1F [Example 28-trans, N-(5-((3S,4S)-4-carbamoyl-3-fluoropiperidin-1-yl)pentyl)-5-(thiophen-2-yl)isoxazole-3-carboxamide]
- maximal fold induction: 16.8

SMILES: N#C[C@H]1CCN(CCCCCNC(=O)c2cc(-c3cccs3)on2)C[C@@H]1C(N)=O [Example 29, N-(5-((3R,4S)-3-carbamoyl-4-cyanopiperidin-1-yl)pentyl)-5-(thiophen-2-yl)isoxazole-3-carboxamide]
- maximal fold induction: 15.4

SMILES: NC(=O)C1CCN(CCCCCNC(=O)c2cc(-c3ccc(F)cc3)on2)CC1O (centres unmarked) [Example 31, N-(5-(4-carbamoyl-3-hydroxypiperidin-1-yl)pentyl)-5-(4-fluorophenyl)isoxazole-3-carboxamide]
- maximal fold induction: 14.7

SMILES: O=C(NCCCCCN1CC(C(=O)NC2COCC2O)C1)c1cc(-c2cccs2)on1 (centres unmarked) [Example 36, N-(5-(3-((4-hydroxytetrahydrofuran-3-yl)carbamoyl)azetidin-1-yl)pentyl)-5-(thiophen-2-yl)isoxazole-3-carboxamide]
- maximal fold induction: 13.6
